Results published in patent US9463252B2, “Auristatin drug linker conjugates” (priority 2008, dated 2016).

Assays:
[1] = test system: Caki-1; test: Cytotoxicity of Auristatin-Peptide-h1F6 conjugates, resazurin assay; format: cell-based
Source text: (§1) The conjugates contain approximately 4 drugs per antibody.

[2] = test system: L428; test: as above; format: cell-based
Source text: as §1

[3] = test system: U251; test: as above; format: cell-based; settings: Table 4, ~4 drugs/Ab
Source text: as §1

[4] = test system: HCT-116 (CD70−); test: Cytotoxicity of Auristatin-Peptide-h1F6 conjugates, CD70- control cell line; format: cell-based
Source text: as §1

[5] = test system: CD70+ positive cell lines; settings: h1F6 conjugates, ~4 drugs/Ab
Description: Cytotoxicity assays are usually carried out for 96 hours after addition of test compounds. Fifty μl of resazurin dye may be added to each well during the last 4 to 6 hours of the incubation to assess viable cells at the end of culture. Dye reduction can be determined by fluorescence spectrometry using the excitation and emission wavelengths of 535 nm and 590 nm, respectively. For analysis, the extent of resazurin reduction by the treated cells can be compared to that of the untreated control cells.

[6] = test system: 786-O (renal cell) xenografts; settings: mouse, ip
Description: The efficacy of AF-Dipeptide-h1F6 conjugates were evaluated in 786-O (renal cell) xenografts. AF-Dipeptide-h1F6 conjugates with an average of 4 drug moieties per antibody were used. 786-O cells were implanted subcutaneously into immunodeficient mice (5×10^6 cells per mouse). Tumor volumes are calculated using the formula (0.5×L×W^2) where L and W are the longer and shorter of two bidirectional measurements.
In a second study, the efficacies of additional Auristatin-Dipeptide-h1F6 conjugates were evaluated in 786-O (renal cell) xenografts. Auristatin-Dipeptide-h1F6 conjugates with an average of 4 drug moieties per antibody were used. 786-O cells were implanted subcutaneously into immunodeficient mice (5×10^6 cells per mouse). Tumor volumes are calculated using the formula (0.5×L×W^2), where L and W are the longer and shorter of two bidirectional measurements.

[7] = test system: 786-O; test: Cytotoxicity of Auristatin-Peptide-h1F6 conjugates, resazurin assay; format: cell-based, human
Source text: as §1

[8] = test system: Caki-2; test: as above; format: cell-based
Description: as §1
Following the procedure described as Examples 57 and 58, Auristatin-Peptide-h1F6 conjugates were evaluated on CD70^+ cell, such as 786-O, Caki-1, Caki-2, and L428. Conjugates contain approximately 4 drugs per antibody.

[9] = test system: Karpas 299; test: Cytotoxicity of Auristatin-Peptide-cAC10 conjugates on CD30+ cells; format: cell-based, human; settings: Table 11, ~4 drugs per antibody
Description: (§2) Following the procedure described in Example 57, Auristatin-Dipeptide-cAC10 antibody conjugates were evaluated on CD30+ positive cell lines, Karpas 299, L428 and L540cy. In addition, a control conjugate, cAC10-vc-PABC-MMAF, was used. […] The conjugates contain approximately 4 drugs per antibody.
(§3) Following the procedure described as Examples 57 and 58, the activities of Auristatin-Peptide-cAC10 conjugates were evaluated on CD30^+ cells, such as Karpas 299, L428, and L540cy. The activities of Auristatin-Peptide-hBU12 conjugates were evaluated on CD19^+ cells such as Ramos, SUDHL-4, and ARH-77. The activities of Auristatin-Peptide-anti-LIV-1 conjugates were evaluated on LIV-1 positive cell lines MCF-7 and SKOV-3. The activities of Auristatin-Peptide-BR96 conjugates were evaluated on Le^y positive cells H3396, RCA, and L2987. All conjugates contain approximately 4 drugs per antibody.

[10] = test system: L540cy; test: as above; format: cell-based, human; settings: Table 11, ~4 drugs per antibody
Description: as §2, §3

[11] = test system: L428; test: as above; format: cell-based; settings: Table 11, ~4 drugs per antibody
Description: as §2, §3

[12] = test system: ARH-77; test: Cytotoxicity of Auristatin-Peptide-hBU12 conjugates on CD19+ cells; format: cell-based; settings: Table 11, ~4 drugs per antibody
Description: as §3

[13] = test system: Ramos; test: as above; format: cell-based; settings: Table 11, ~4 drugs per antibody
Description: as §3

[14] = test system: SUDHL-4; test: as above; format: cell-based; settings: Table 11, ~4 drugs per antibody
Description: as §3

[15] = test system: MCF-7; test: Cytotoxicity of Auristatin-Peptide-anti-LIV-1 conjugates on LIV-1 positive cells; format: cell-based; settings: Table 11, ~4 drugs per antibody
Description: as §3

[16] = test system: SKOV-3; test: as above; format: cell-based; settings: Table 11, ~4 drugs per antibody
Description: as §3

[17] = test system: H3396; test: Cytotoxicity of Auristatin-Peptide-BR96 conjugates on Le^y positive cells; format: cell-based; settings: Table 11, ~4 drugs per antibody
Description: as §3

[18] = test system: L2987; test: as above; format: cell-based; settings: Table 11, ~4 drugs per antibody
Description: as §3

[19] = test system: RCA; test: as above; format: cell-based; settings: Table 11, ~4 drugs per antibody
Description: as §3

[20] = test system: CD30+, CD19+, LIV-1 positive and Le^y positive cells; test: In vitro activity of conjugates with cAC10, hBU12, anti-LIV-1 and BR96, overall statements; format: cell-based; settings: conjugates with cAC10, hBU12, Anti-LIV-1, BR96; Table 11
Description: as §3

[21] = test system: DoHH-2 follicular B-cell lymphoma subcutaneous model; test: In vivo efficacy of hBU12 conjugates in lymphoma xenograft model; parameters: species or system mouse; settings: FIG. 16, q4d×4 at 3 mg/kg, SCID mice
Description: The efficacies of Auristatin-Dipeptide hBU12 conjugates with the aryl and alkyl-maleimide Stretcher units were evaluated in a DoHH-2 follicular B-cell lymphoma subcutaneous model. Auristatin-Dipeptide-hBU12 conjugates with average of 4 drug moieties per antibody were used. DoHH-2 cells were implanted subcutaneously into immunodeficient SCID mice (5×10^6 cells per mouse). […] Treatment was initiated when average size of tumors reached 100 mm^3; the treatment schedule was q4d×4 at 3 mg/kg.

[22] = test system: L540cy Hodgkin's lymphoma subcutaneous model; test: In vivo efficacy of cAC10 conjugates in lymphoma xenograft model; parameters: species or system mouse; settings: FIG. 17, q4d×3 at 1 mg/kg, SCID mice
Description: The efficacy of selected Auristatin-Dipeptide-cAC10 conjugates having Stretcher units with aryl or alkyl maleimides were evaluated in L540cy Hodgkin's lymphoma subcutaneous model. Auristatin-Dipeptide-cAC10 conjugates with average of 4 drug moieties per antibody were used. L540cy cells were implanted subcutaneously into immunodeficient SCID mice (5×10^6 cells per mouse). […] Treatment was initiated when average size of tumors reached 100 mm^3. The treatment schedule was q4d×3 at 1 mg/kg.

[23] = Table 4, h1F6 conjugates, ~4 drugs/Ab
[24] = Table 5, h1F6 conjugates, ~4 drugs/Ab
[25] = Table 10, h1F6-Drug(4) conjugates, aryl or alkyl maleimides

| Substance | IC50 786-O [7, 24] [µg/mL] | IC50 786-O [7, 25] [µg/mL] | IC50 Caki-1 [1, 24] [ng/mL] | IC50 Caki-1 [1, 25] [ng/mL] | IC50 L428 [2, 24] [ng/mL] | IC50 L428 [2, 25] [ng/mL] | IC50 HCT-116 (CD70−) ([4]; Table 5, ~4 drugs/Ab) [µg/mL] | IC50 Caki-2 [8, 24] [µg/mL] | IC50 Caki-2 [8, 25] [µg/mL] | IC50 Karpas 299 [9] [µg/mL] | IC50 L540cy [10] [µg/mL] | IC50 L428 [11] | IC50 ARH-77 [12] | IC50 Ramos [13] | IC50 SUDHL-4 [14] | IC50 MCF-7 [15] | IC50 SKOV-3 [16] | IC50 H3396 [17] [µg/mL] | IC50 L2987 [18] [µg/mL] | IC50 RCA [19] [µg/mL] | other results |
| --- | --- | --- | --- | --- | --- | --- | --- | --- | --- | --- | --- | --- | --- | --- | --- | --- | --- | --- | --- | --- | --- |
| AF-Proline-(D)Lysine-diaminoethane-propionyl maleimide [AF-Pro-(D)Lys] |  |  |  |  |  |  |  |  |  |  |  |  |  |  |  |  |  |  |  |  | IC50 Caki-1 [1, 23]: >10,000 ng/mL; IC50 L428 [2, 23]: >10,000 ng/mL; IC50 U251 [3]: 5.012 µg/mL; IC50 HCT-116 (CD70−) ([4]; Table 4, ~4 drugs/Ab): >1 µg/mL; in vitro activity on CD70+ cells (in words) [5]: largely inactive; in vivo efficacy, tumor volume (in words) [6]: inactive |
| AW-Methionine-(D)Lysine-diaminoethane-propionyl maleimide [AW-Met-(D)Lys] | 0.02 | 0.017 | 22 | 19 | >1000 | >1000 | >1 | 0.037 | 0.018 | 0.011 | 0.017 | ~10,000 ng/mL | >10,000 ng/mL | >10,000 ng/mL | >10,000 ng/mL | >10,000 ng/mL | >10,000 ng/mL | 0.146 | 0.422 | 5.217 | in vitro potency (in words) [20]: less active |
| AM-Asparagine-(D)Lysine-diaminoethane-propionyl maleimide [AM-Asn-(D)Lys] | 0.02 | 0.018 | 20 | 16 | 26 | 29 | >1 | 0.047 | 0.026 | 0.011 | 0.031 | 0.6 ng/mL | 49 ng/mL | 1 ng/mL | >10,000 ng/mL | 24 ng/mL | 7600 ng/mL | 0.037 | 0.506 | 8.362 | in vivo efficacy, tumor volume (in words) [21]: more potent than corresponding AW-Met-(D)Lys conjugates; in vivo efficacy, tumor volume (in words) [22]: more potent than corresponding AW-Met-(D)Lys conjugates |
